Patent US20090018111A1, “Novel Antimicrobial Medicament” (priority 2004, published 2009)
Read-outs that look alike come from different tables or passages of the source.

What was measured:
Assay in all cases: Sensitivity test (agar dilution), clinical isolate
Acinetobacter spp. 1195 = format: cell-based, Acinetobacter calcoaceticus and Acinetobacter lwoffi; conditions: read-out: MIC
Protocol: (§1) In addition, the antibacterial activities were tested against strains which are comparatively less sensitive to β-lactam compounds, namely clinically isolated 13 strains of Acinetobacter calcoaceticus and Acinetobacter lwoffi, clinically isolated 11 strains of Serratia marcescens, clinically isolated 12 strains of Burkholderia cepacia, and clinically isolated 15 strains of Pseudomonas aeruginosa.
(§2) According to the standard method of Japan Chemotherapeutic Society (Chemotherapy, vol. […], p 76-79 (1981)) the test was carried out using the agar dilution method. After dissolving test samples in distilled water, agar medium containing the test samples was prepared in such a manner that the final concentration became twice serial dilution by pouring serially diluted combination drug solution or a single drug solution into agar medium. As agar medium was used Mueller Hinton Agar medium (MHA). Then, each strain was cultivated over night at 37° C. in an incubator and suspended in buffered saline solution with gelatin (BSG) in the concentration of about 10^6 CFU/ml. The suspension (about 5 μl) containing test strains was inoculated to the medium containing the test samples by Micro Planter.
(§3) Each drug was weighed, and dissolved in distilled water to give a test sample. When the drugs are used in combination, two kinds of solution containing each drug were mixed so as to be various ratio of concentration to give a mixed solution. When the sample is subjected to sensitivity test, this mixed solution was diluted by twice serial dilution method.
(§4) Furthermore, when the drug is solely used, each test sample was used as it is, and diluted by twice serial dilution method from the maximum concentration to the minimum concentration.

Acinetobacter spp. 1198 = format: cell-based, Acinetobacter calcoaceticus and Acinetobacter lwoffi; conditions: read-out: MIC
Protocol: as §1, §2, §3, §4

[1] = system: Acinetobacter spp. 1338-2; format: cell-based, Acinetobacter calcoaceticus and Acinetobacter lwoffi; conditions: read-out: MIC
Protocol: as §1, §2, §3, §4

[2] = system: Acinetobacter spp. 1398-2; format: cell-based, Acinetobacter calcoaceticus and Acinetobacter lwoffi
Protocol: as §1, §2, §3, §4

[3] = system: Acinetobacter spp. 1399-2; format: cell-based, Acinetobacter calcoaceticus and Acinetobacter lwoffi
Protocol: as §1, §2, §3, §4

Acinetobacter spp. 14712 = format: cell-based, Acinetobacter calcoaceticus and Acinetobacter lwoffi
Protocol: as §1, §2, §3, §4

Acinetobacter spp. 175 = format: cell-based, Acinetobacter calcoaceticus and Acinetobacter lwoffi; conditions: Acinetobacter, read-out: MIC
Protocol: as §1, §2, §3, §4

Acinetobacter spp. 227-1 = format: cell-based, Acinetobacter calcoaceticus and Acinetobacter lwoffi
Protocol: as §1, §2, §3, §4

Acinetobacter spp. 256 = format: cell-based, Acinetobacter calcoaceticus and Acinetobacter lwoffi
Protocol: as §1, §2, §3, §4

[4] = system: Acinetobacter spp. Jan-54; format: cell-based, Acinetobacter calcoaceticus and Acinetobacter lwoffi
Protocol: as §1, §2, §3, §4

[5] = system: Acinetobacter spp. Jan-81; format: cell-based, Acinetobacter calcoaceticus and Acinetobacter lwoffi
Protocol: as §1, §2, §3, §4

[6] = system: Acinetobacter spp. Jan-99 (second line, r15); format: cell-based, Acinetobacter calcoaceticus and Acinetobacter lwoffi; conditions: read-out: MIC
Protocol: as §1, §2, §3, §4

[7] = system: Acinetobacter spp. Jan-99; format: cell-based, Acinetobacter calcoaceticus and Acinetobacter lwoffi; conditions: Acinetobacter, read-out: MIC
Protocol: as §1, §2, §3, §4

B. cepacia 1892324 = format: cell-based, Burkholderia cepacia
Method in brief: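 Strains were cultured overnight at 37 °C and suspended in gelatin-buffered saline at about 10^6 CFU/ml. About 5 μl was inoculated onto Mueller Hinton agar containing twofold serial dilutions of each drug alone or drug combinations mixed at various concentration ratios.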

P. aeruginosa 12790 = format: cell-based, Pseudomonas aeruginosa; conditions: read-out: MIC
Protocol: as §1, §2, §3, §4

## C[C@H]1C=C(c2csc(SC3=C(C(=O)O)N4C(=O)[C@H]([C@@H](C)O)[C@H]4[C@H]3C)n2)CN1 [SM, (4R,5S,6S)-6-[(1R)-1-Hydroxyethyl]-4-methyl-3-({4-[(5S)-5-methyl-2,5-dihydro-1H-pyrrol-3-yl]-1,3-thiazol-2-yl}sulfanyl)-7-oxo-1-azabicyclo[3.2.0]hept-2-ene-2-carboxylic acid]
Acinetobacter spp. 1195; SPP.1195, Concomitant (ME:SM = 1:1)
  MIC: 0.25 µg/mL
Acinetobacter spp. 1195; SPP.1195, Concomitant (ME:SM = 1:2)
  MIC: 0.25 µg/mL
Acinetobacter spp. 1195; SPP.1195, Concomitant (ME:SM = 1:4)
  MIC: 0.25 µg/mL
Acinetobacter spp. 1195; SPP.1195, Concomitant (ME:SM = 2:1)
  MIC: 0.125 µg/mL
Acinetobacter spp. 1195; SPP.1195, alone
  MIC: 0.5 µg/mL
Acinetobacter spp. 1198; SPP.1198, Concomitant (ME:SM = 1:1)
  MIC: 0.25 µg/mL
Acinetobacter spp. 1198; SPP.1198, Concomitant (ME:SM = 1:2)
  MIC: 0.25 µg/mL
Acinetobacter spp. 1198; SPP.1198, Concomitant (ME:SM = 1:4)
  MIC: 0.25 µg/mL
Acinetobacter spp. 1198; SPP.1198, Concomitant (ME:SM = 2:1)
  MIC: 0.125 µg/mL
Acinetobacter spp. 1198; SPP.1198, alone
  MIC: 0.5 µg/mL
[1]; SPP.13382, Concomitant (ME:SM = 1:1)
  MIC: 0.5 µg/mL
[1]; SPP.13382, Concomitant (ME:SM = 1:2)
  MIC: 1 µg/mL
[1]; SPP.13382, Concomitant (ME:SM = 1:4)
  MIC: 0.5 µg/mL
[1]; SPP.13382, Concomitant (ME:SM = 2:1)
  MIC: 0.25 µg/mL
[1]; SPP.13382, alone
  MIC: 0.5 µg/mL
[2]; SPP.13982, Concomitant (ME:SM = 1:1)
  MIC: 2 µg/mL
[2]; SPP.13982, Concomitant (ME:SM = 1:2)
  MIC: 4 µg/mL
[2]; SPP.13982, Concomitant (ME:SM = 1:4)
  MIC: 4 µg/mL
[2]; SPP.13982, Concomitant (ME:SM = 2:1)
  MIC: 2 µg/mL
[2]; SPP.13982, alone
  MIC: 8 µg/mL
[3]; SPP.13992, Concomitant (ME:SM = 1:1)
  MIC: 0.5 µg/mL
[3]; SPP.13992, Concomitant (ME:SM = 1:2)
  MIC: 1 µg/mL
[3]; SPP.13992, Concomitant (ME:SM = 1:4)
  MIC: 1 µg/mL
[3]; SPP.13992, Concomitant (ME:SM = 2:1)
  MIC: 0.25 µg/mL
[3]; SPP.13992, alone
  MIC: 2 µg/mL
Acinetobacter spp. 14712; SPP.14712, Concomitant (ME:SM = 1:1)
  MIC: 0.5 µg/mL
Acinetobacter spp. 14712; SPP.14712, Concomitant (ME:SM = 1:2)
  MIC: 1 µg/mL
Acinetobacter spp. 14712; SPP.14712, Concomitant (ME:SM = 1:4)
  MIC: 1 µg/mL
Acinetobacter spp. 14712; SPP.14712, Concomitant (ME:SM = 2:1)
  MIC: 0.25 µg/mL
Acinetobacter spp. 14712; SPP.14712, alone
  MIC: 2 µg/mL
Acinetobacter spp. 175; SPP.175, Concomitant (ME:SM = 1:1)
  MIC: 0.125 µg/mL
Acinetobacter spp. 175; SPP.175, Concomitant (ME:SM = 1:2)
  MIC: 0.125 µg/mL
Acinetobacter spp. 175; SPP.175, Concomitant (ME:SM = 1:4)
  MIC: 0.25 µg/mL
Acinetobacter spp. 175; SPP.175, Concomitant (ME:SM = 2:1)
  MIC: 0.063 µg/mL
Acinetobacter spp. 175; SPP.175, alone
  MIC: 0.5 µg/mL
Acinetobacter spp. 227-1; SPP.2271, Concomitant (ME:SM = 1:1)
  MIC: 0.5 µg/mL
Acinetobacter spp. 227-1; SPP.2271, Concomitant (ME:SM = 1:2)
  MIC: 1 µg/mL
Acinetobacter spp. 227-1; SPP.2271, Concomitant (ME:SM = 1:4)
  MIC: 1 µg/mL
Acinetobacter spp. 227-1; SPP.2271, Concomitant (ME:SM = 2:1)
  MIC: 0.25 µg/mL
Acinetobacter spp. 227-1; SPP.2271, alone
  MIC: 2 µg/mL
Acinetobacter spp. 256; SPP.256, Concomitant (ME:SM = 1:1)
  MIC: 0.5 µg/mL
Acinetobacter spp. 256; SPP.256, Concomitant (ME:SM = 1:2)
  MIC: 1 µg/mL
Acinetobacter spp. 256; SPP.256, Concomitant (ME:SM = 1:4)
  MIC: 1 µg/mL
Acinetobacter spp. 256; SPP.256, Concomitant (ME:SM = 2:1)
  MIC: 0.25 µg/mL
Acinetobacter spp. 256; SPP.256, alone
  MIC: 1 µg/mL
[4]; Concomitant (ME:SM = 1:1)
  MIC: 0.5 µg/mL
[4]; Concomitant (ME:SM = 1:2)
  MIC: 1 µg/mL
[4]; Concomitant (ME:SM = 1:4)
  MIC: 1 µg/mL
[4]; Concomitant (ME:SM = 2:1)
  MIC: 0.25 µg/mL
[4]; alone
  MIC: 2 µg/mL
[5]; Concomitant (ME:SM = 1:1)
  MIC: 8 µg/mL
[5]; Concomitant (ME:SM = 1:2)
  MIC: 4 µg/mL
[5]; Concomitant (ME:SM = 1:4)
  MIC: 8 µg/mL
[5]; Concomitant (ME:SM = 2:1)
  MIC: 2 µg/mL
[5]; alone
  MIC: 32 µg/mL
[6]; Concomitant (ME:SM = 1:1)
  MIC: 0.5 µg/mL
[6]; Concomitant (ME:SM = 1:2)
  MIC: 0.5 µg/mL
[6]; Concomitant (ME:SM = 1:4)
  MIC: 0.5 µg/mL
[6]; Concomitant (ME:SM = 2:1)
  MIC: 0.25 µg/mL
[6]; alone
  MIC: 2 µg/mL
[7]; Concomitant (ME:SM = 1:1)
  MIC: 0.25 µg/mL
[7]; Concomitant (ME:SM = 1:2)
  MIC: 0.25 µg/mL
[7]; Concomitant (ME:SM = 1:4)
  MIC: 0.5 µg/mL
[7]; Concomitant (ME:SM = 2:1)
  MIC: 0.125 µg/mL
[7]; alone
  MIC: 0.5 µg/mL
B. cepacia 1892324; Burkholderia cepacia, 1892324, Concomitant (ME:SM = 1:1)
  MIC: 1 µg/mL
B. cepacia 1892324; Burkholderia cepacia, 1892324, Concomitant (ME:SM = 1:2)
  MIC: 2 µg/mL
B. cepacia 1892324; Burkholderia cepacia, 1892324, Concomitant (ME:SM = 1:4)
  MIC: 2 µg/mL
B. cepacia 1892324; Burkholderia cepacia, 1892324, Concomitant (ME:SM = 2:1)
  MIC: 1 µg/mL
B. cepacia 1892324; Burkholderia cepacia, 1892324, alone
  MIC: 4 µg/mL
P. aeruginosa 12790; Pseudomonas aeruginosa, 12790, Concomitant (ME:SM = 1:1)
  MIC: 0.063 µg/mL
P. aeruginosa 12790; Pseudomonas aeruginosa, 12790, Concomitant (ME:SM = 1:2)
  MIC: 0.25 µg/mL
P. aeruginosa 12790; Pseudomonas aeruginosa, 12790, Concomitant (ME:SM = 1:4)
  MIC: 0.25 µg/mL
P. aeruginosa 12790; Pseudomonas aeruginosa, 12790, Concomitant (ME:SM = 2:1)
  MIC: 0.016 µg/mL
P. aeruginosa 12790; Pseudomonas aeruginosa, 12790, alone
  MIC: 4 µg/mL
